SMILES strings stand for the structures. *1 amine or outer side, *2 acyl side, *3 side chain or, on linkers, in order; H or OH if unused. Where a SMILES comes first, the peptide text is derived from it. [ ]: non-standard residue; d: D form. The star is where a group is joined. Asp(3,3-(CH2)4) = N[C@H](C(=O)O)C1(C(=O)O)CCCC1; tBuAla = CC(C)(C)C[C@H](N)C(=O)O; Tle = CC(C)(C)[C@H](N)C(=O)O; Pyrrolidide = C1CCN(*)C1; CO = O=C([*:1])[*:2]; X3 = CCCC(C)(C)N*

The experiment has as its system Herpes Simplex Virus (HSV-2). It is filed as cell-based. To be noted: 29 h. As to the method:
BHK-21/C13 cells (ATCC CCL 10) are incubated for two days in 150 cm^2 T-flasks (1.5 x 10^6 cells/flask) with alpha-MEM medium (Gibco Canada Inc., Burlington, Ontario, Canada) supplemented with 8% (v/v) fetal bovine serum (FBS, Gibco Canada Inc.). The cells are trypsinized and then transferred to fresh media in a 24 well plate to give 2.5 x 10^5 cells in 750 µL of media per well. The cells are incubated at 37° for a period of 6 h to allow them to adhere to the plate. Thereafter, the cells are washed once with 500 µL of alpha-MEM supplemented with 0.5% (v/v) FBS and then incubated with 750 µL of the same media (low serum) for 3 days. After this period of serum starvation, the low serum medium is removed and the cells are incubated in 500 µL of BBMT for 2 to 3 hours. {BBMT medium is described by P. Brazeau et al., Proc. Natl. Acad. Sci. USA, 79, 7909 (1982).} Thereafter, the cells are infected with HSV-2 (multiplicity of infection = 0.02 PFU/cell) in 100 µL of BBMT medium. (Note: The HSV-2 used was strain HG-52, see Y. Langelier and G. Buttin, J. Gen. Virol., 57, 21 (1981); the virus was stored at -80°.) Following 1 h of virus adsorption at 37°, the media is removed and the cells are washed with BBMT (3 X 250 µL). The cells in each well are incubated with or without (control) appropriate concentrations of the test agent dissolved in 200 µL of BBMT medium. After 29 h of incubation at 37°, the infected cells are harvested by first freezing the plate at -80°, followed by thawing. The cells in each well are scraped off the surface of the well with the help of the melting ice fragments. After complete thawing, the cell suspensions are collected and each well is rinsed with 150 µL of BBMT medium. The viral sample (suspension plus washing) is sonicated gently for 4 min at 4°. Cell debris are removed by centrifugation (1000 times gravity for 10 minutes at 4°). The supernatant is collected and stored at -80° until determination of viral titer.
Viral titration was performed by a modification of the colorimetric assay method of M. Langlois et al., Journal of Biological Standardization, 14, 201 (1986).
More specifically, in a similar manner as described above, BHK-21/C13 cells are trypsinized and transferred to fresh media in a 96 well microtiter plate to give 20,000 cells in 100 µL of media per well. The cells in the prepared plate are incubated at 37° for, 2 h. During that time, the viral sample is thawed and sonicated gently for 15 seconds, and log dilutions of the sample are prepared (1/5 sequential: 50 µL of the sample plus 200 µL of BBMT medium, sequential dilutions being done with a multichannel pipette.
On completion of the above 2 hour incubation of the BHK-21/C13 cells, the media is replaced with alpha-MEM medium supplemented with 3% (v/v) FBS. The cells are now ready to be infected with the various sample dilutions of virus. Aliquots (50 µL) of the various dilutions are transferred into the appropriate wells of the plate. The resulting infected cells are incubated for 2 days at 37°. Then 50 µL of a 0.15% (v/v) solution of neutral red dye in Hank's Balanced Salt Solution (pH 7.3, Gibco Canada Inc.) is added to each well. The prepared plate is incubated for 45 min at 37°. Medium from each well is then aspirated and the cells are washed once with 200 µL of Hank's Balanced Salt Solution. After the wash, the dye is released from the cells by the addition of 100 µL of a 1:1 mixture of 0.1 M Sorensen's citrate buffer (pH 4.2) and ethanol. {Sorensen's citrate buffer is prepared as follows: Firstly, a 0.1 M disodium citrate solution is prepared by dissolving citric acid monohydrate (21 g) in 1 N aqueous NaOH (200 mL) and adding sufficient filtered H2O to make 1 L. Secondly, the 0.1 M disodium citrate solution (61.2 mL) is mixed with 0.1 N aqueous HCl (38.8 mL) and the pH of the resulting solution is adjusted to 4.2 if necessary.} The mixture in the wells is subjected to a gentle vortex action to ensure proper mixing.
For orientation: EC50 means the concentration at which the effect is half-maximal. `CCCC(CCC)NC(=O)N[C@H](C(=O)N[C@@H](CC(=O)C1CCC1)C(=O)N[C@H](C(=O)NCC(C)(C)C)C1(C(=O)O)CCCC1)C(C)(C)C` [Pr2CHNHC(O)-Tbg-NH-(S)-CH(2-cyclobutyl-2-oxoethyl)C(O)-Asp(cyPn)-NHCH2CMe3] showed an EC50 of 160 µM.
Take `CCCC(CCC)NC(=O)N[C@H](C(=O)N[C@@H](CC(=O)C1CCCCC1)C(=O)N[C@H](C(=O)NCC(C)(C)C)C1(C(=O)O)CCCC1)C(C)(C)C` [Pr2CHNHC(O)-Tbg-NHCH(2-cyclohexyl-2-oxoethyl)C(O)-Asp(cyPn)-NHCH2CMe3]: a half-maximal response (EC50) required 140 µM.
Next, `CCCC(CCC)NC(=O)N[C@H](C(=O)N[C@@H](CC(=O)C1CCCC1)C(=O)N[C@H](C(=O)NCC(C)(C)C)C1(C(=O)O)CCCC1)C(C)(C)C` [Pr2CHNHC(O)-Tbg-NHCH(2-cyclopentyl-2-oxoethyl)C(O)-Asp(cyPn)-NHCH2CMe3]: 90 µM; `CCCC(CCC)NC(=O)N[C@H](C(=O)N[C@@H](CC(=O)C(CC)CC)C(=O)N[C@H](C(=O)NCC(C)(C)C)C1(C(=O)O)CCCC1)C(C)(C)C` [Pr2CHNHC(O)-Tbg-NHCH(3-ethyl-2-oxopentyl)CO-Asp(cyPn)-NHCH2CMe3]: 25 µM; `CCCC(C)(C)NC(=O)N[C@H](C(=O)N[C@@H](CC(=O)N1CCCC1)C(=O)N[C@H](C(=O)N[C@@H](CC(C)(C)C)C(=O)O)C1(C(=O)O)CCCC1)C(C)(C)C` [PrMe2CNHC(O)-Tbg-Asp(pyrrolidino)-Asp(cyPn)-γMeLeu-OH] ({X3-CO}-[Tle]D(Pyrrolidide)[Asp(3,3-(CH2)4)][tBuAla]-OH): 110 µM.
As to `CCCC(CCC)NC(=O)N[C@H](C(=O)N[C@@H](CC(=O)N1CCCC1)C(=O)N[C@H](C(=O)N[C@H](CO)CC(C)(C)C)C1(C(=O)O)CCCC1)C(C)(C)C` [Title Compound of Example 8, Pr2CHNHC(O)-Tbg-Asp(pyrrolidino)-Asp(cyPn)-γMeLeucinol], the EC50 came to 75 µM.
